The values below come from patent US20260224544A1, “Intranasal Formulations for Treating Obstructive Sleep Apnea” (Mosanna Therapeutics AG, priority 2023, published 2026).

“Also recorded” adds a separate entry of the source.

Data set [1] can be described thus: Compound 1 drug substance stability (ICH storage conditions). The format is physicochemical. The note with it: long term conditions 25±2° C./60±5%, data not shown. On the procedure:
A stability study for compound 1 batch H (non-micronized, GMP) was initiated as per ICH storage conditions described in Table 36.
Results for 1 month of storage at 25±2° C./60±5% RH, 30±2° C./65±5% RH and at 40±2° C./75±5% RH are available to date.
A stability study for compound 1 batch L and M (micronized to d90<10 μm and d90<35 μm respectively, scheduled GMP sublots of compound 1 batch H) will be initiated as per ICH reference storage conditions described in Table 37 and Table 38.
To date, only limited data are available on compound 1 drug substance both non-micronized and micronized.

Data set [2] can be described thus: Compound 1 drug substance batch analysis (particle size distribution). The format is physicochemical. An excerpt:
The following compound 1 batches were manufactured (Table 31).

Data set [3] deals with upper airway collapsibility. The note with it: anesthetized pigs, administered topically to the upper airway; Wirth et al. 2013; cited from earlier work.
Data set [4] has as its system male patients with Obstructive Sleep Apnea-Hypopnea Syndrome (OSAHS). As to the kind of experiment: Phase 2 clinical trial: change from baseline in Apnea Hypopnea Index (AHI) by overnight polysomnography. The class given is in vivo, human. To be noted: single intranasal dose 18 mg. On the procedure:
(§1) This was a single intranasal dose, multi-center, randomized, placebo-controlled, double-blind, 2-way crossover study with two treatment periods in male patients with Obstructive Sleep Apnea-Hypopnea Syndrome (OSAHS).
(§2) After a screening phase of up to 21 days, the patients received single doses of 18 mg of compound 1 administered as 3 actuations of 100 μL of study drug into each nostril (9 mg/nostril) or matching placebo at bedtime in each study period. The single nasal doses were administered in a sitting position. There was a wash-out period of 2 days to 3 weeks between the two study periods. The duration of the study per patient ranged from 13 days to a maximum of 8 weeks.
Efficacy was assessed in a blinded fashion using overnight polysomnographic recordings (PSG) which were centrally read and interpreted. The central readers were blinded with regard to the treatment sequence the patients received and with regard to potential safety findings. Maintenance of Wakefulness Tests (MWT) and Stanford Sleepiness Scores (SSS) were also used for the assessment of Excessive Daytime Sleepiness (EDS), and plasma concentrations of compound 1 were assessed at baseline and approximately 10 hours after study drug administration (data not shown). […]
Patients were analyzed using the treatment they actually received at each period, irrespective of the treatment sequence they were randomized to. […]

For data set [5] the test system is unchanged. As to the kind of experiment: Phase 2 clinical trial: treatment emergent adverse events (TEAE). The class given is in vivo, human. The note with it: single intranasal dose 18 mg, n = 38. On the procedure: as §1, §2
The Safety population was defined as all randomized patients exposed to the study medication, regardless of the amount of treatment administered. Patients were analyzed using the treatment they actually received at each period.

On to `COc1ccc(CC(=O)NCc2ccccc2-c2ccccc2C(=O)NCCc2cccnc2)cc1` [listing 1 of 2 here], for which the “time for which stability was demonstrated” value in data set [1] (micronized, 2004 lot) is given as “up to 12 months”.

For `COc1ccc(CC(=O)NCc2ccccc2-c2ccccc2C(=O)NCCc2cccnc2)cc1` [listing 2 of 2 here], the “time for which stability was demonstrated” value in data set [1] (lots manufactured in 2004) is on record as “up to 36 months”.

For the compound `COc1ccc(CC(=O)NCc2ccccc2-c2ccccc2C(=O)NCCc2cccnc2)cc1` [Cmpd 1 batch E], in data set [2] (micronized drug substance), the “Particle size distribution d10” value is recorded as “d10 0.96 μm”, the “Particle size distribution d50” value was “d50 4.14 μm” and the “Particle size distribution d90” value is on record as “d90 8.85 μm”.

Turning to `COc1ccc(CC(=O)NCc2ccccc2-c2ccccc2C(=O)NCCc2cccnc2)cc1` [Cmpd 1 batch K], in data set [2] (micronized drug substance), the “Particle size distribution d10” value is given as “d10 1.81 μm”, the “Particle size distribution d50” value was “d50 12.53 μm” and the “Particle size distribution d90” value is “d90 30.01 μm”.

For the compound `COc1ccc(CC(=O)NCc2ccccc2-c2ccccc2C(=O)NCCc2cccnc2)cc1` [Cmpd 1 batch L], in data set [2] (micronized drug substance), the “Particle size distribution d10” value is on record as “d10 0.80 μm”, the “Particle size distribution d50” value was “d50 2.3 μm” and the “Particle size distribution d90” value was “d90 5.9 μm”.

For the compound `COc1ccc(CC(=O)NCc2ccccc2-c2ccccc2C(=O)NCCc2cccnc2)cc1` [Compound 1, 2′-{[2-(4-methoxy-phenyl)-acetylamino]-methyl}-biphenyl-2-carboxylic acid (2-pyridin-3-yl-ethyl)-amide], in data set [3], the “inhibition of upper airway collapsibility” value is “dose-dependently inhibit upper airway collapsibility”. The “AHI (num/hr) LS mean difference, compound 1 versus placebo, change from baseline” value in data set [4] (ITT population) is recorded as −3.78 num/hr. The “primary efficacy outcome (reduction of AHI versus placebo)” value in data set [4] was “not statistically significant; also recorded: no significant improvement in obstructive sleep apnea”. In data set [5], the “All grade TEAEs: Cough, %” value was “(50.0%)”; the “All grade TEAEs: Eye Disorders, %” value is recorded as “(57.9%)”; the “All grade TEAEs: Increased tearing, %” value is recorded as “(52.6%)”; the “All grade TEAEs: Nasal discomfort, %” value is listed as “(36.8%)”. In data set [5], the “All grade TEAEs: Respiratory, %” value is on record as “(97.4%)”; the “All grade TEAEs: Rhinorrhea, %” value is recorded as “(18.4%)”; the “All grade TEAEs: Sneezing, %” value is on record as “(84.2%)”; the “All grade TEAEs: Throat irritations, %” value is “(34.2%)”. In addition, the “D90 of drug substance” value in data set [2] (micronized drug substance) was “approximately 4.9 μm”. Besides, in data set [2] (non micronized batch sieved with a 32 μm mesh), the “D90 of drug substance” value was “approximately 28 μm”.
